Experimental data published in US20230022796A1 (Merck Patent GmbH, priority 2019, published 2023).

How the values were obtained:
[1] = test system: FcγRIIIa V176; test: Surface plasmon resonance (Biacore) binding of mAb3 from treated cultures to FcγRIIIa; conditions: for Fold change (affinity vs control): mAb3, 400 μM additive; for Kd: mAb3 from culture fed with 400 μM additive
Protocol: Binding of samples after 5-ThioFuc treatment was investigated by surface plasmon resonance technology using a Biacore T200 system (GE Healthcare, Uppsala, Sweden). The analysis temperature was set to 25° C. and sample compartment temperature to 15° C. […] The anti-His antibody was further used to capture His-tagged FcγRIIIa V176 ([…]) from AcroBiosystems (Newark, Del., USA).
Binding was recorded continuously, while unspecific binding and injection artefacts were subtracted automatically. Single-cycle kinetics were used with a dissociation time of 600 s at a flow rate of 30 μL/min. Data collection rate was performed at 10 Hz. Following each experiment, both flow cells were regenerated for 30 s with 10 mM glycine-HCl pH 1.5 according to kit instructions. Data of three technical and two biological replicates were fitted with a 1:1 binding model. The global dissociation constant KD was determined from the ratio of the kinetic rate constants for dissociation (kd) and association (ka) values. Data are presented in Table 1 as fold change compared to the control.

[2] = test system: CHO cell line producing a fusion protein; test: Glycosylation profile (UPLC-MS of released glycans) of fusion protein from fed-batch; format: cell-based, Chinese hamster; conditions: 400 μM additive, day 12
Protocol: (§1) Glycosylation patterns were analyzed by ultra-performance liquid chromatography coupled to a mass spectrometer (UPLC-MS). The purified antibody was denaturated and the glycans were released from the antibody by digestion with peptide N-glycosidase F (PNGase F) followed by labeling the glycans with the GlycoWorks™ RapiFluor-MS™ N-Glycan Kit according to the manufacturer protocol. For the analysis, an UPLC glycan column (2.1×150 mm) that separated the glycans according to their […] was used. The chromatography was performed at 45° C. using 50 mM ammonium formate (A), pH 4.4 solution and an acetonitrile (B) gradient. In detail, at the beginning the ratio of A:B was 20:80 (0 min) and changed to 27:73 at 3 min and 37:63 at 35 min at a flow rate of 0.5 ml/min. From 36.5 min to 39.5 min only A was used as mobile phase and the flow rate was reduced to 0.2 ml/min. Subsequently, the ratio was changed to 20% A:80% B and the flowrate was increased to 0.5 ml/min at 43.1 min until the end of the process at 55 min. The detection was performed by a fluorescence detector with an excitation wavelength of 265 nm and an emission wavelength of 425 nm. The identification of the glycan structures was performed by MS using positive electro spray ionization (ESI), which was calibrated every 30 s with a standard.
(§2) Four different clones of Chinese hamster ovary (CHO) cells expressing three different monoclonal antibodies (mAb) and a fusion protein were tested. Cells were cultivated in spin tubes between 14 and 20 days at 37° C., 5% CO2, and 80% humidity. As starting cell density, 3×10^5 cells/mL in 30 mL Cellvento®4CHO media (pH 7.0±0.1) was used for clone 1 and 2 producing mAb1 and mAb2, respectively (Cellvento® Platform). Cells were cultivated at an agitation of 320 rpm and were fed on day 3, 5, 10, 12 and 14 with 3% volume of Cellvento® 4Feed (v/v) and on day 7 with 6% (v/v) of the feed. Clone 3 and 4 producing mAb3 and a fusion protein were inoculated at the same cell density in 30 mL Ex-Cell® Advanced Media (pH 7.2±0.1) while agitation was set to 230 rpm (Ex-Cell® Platform). Clones 3 and 4 were fed with […] Advanced Feed (v/v) on day 3, 5, 7, 10, 12, 14 and 17. […] The pH of all Cellvento® feeds was adjusted to 7.0±0.1 and Ex-Cell® Feeds were adjusted to 8.5±0.1. The glucose level was maintained above 4 g/L by adding a specific amount of a 400 g/L glucose stock solution on demand to up to 6 g/L during the week and up to 13 g/L over the weekend. Glucose and titer were detected in the supernatant with the bioprocess analyzer CEDEX Bio HT (Roche, Mannheim, Germany).
(§3) To investigate the glycosylation profile during the fed-batch experiment samples were centrifugated and antibodies and Fc-fusion proteins were purified from the cell culture supernatant using protein A PhyTips® (PhyNexus Inc, San Jose, Calif.). Glycosylation patterns were analyzed as described by ultra-performance liquid chromatography coupled to a mass spectrometer (UPLC-MS) using the GlycoWorks™ RapiFluor-MS™ N-Glycan Kit.
(§4) Glycosylation profile on day 12 was visualized since harvest of recombinant produced proteins on day 12 is common. Quantification of the glycans was obtained using the relative peak area of the fluorescence signal. Almost all peaks were assigned to glycan structures according to their mass. Unknown glycan structures and signals without mass detection were summarized as unknown species (not shown). Four different clones of Chinese hamster ovary (CHO) cells expressing three different monoclonal antibodies (mAb) and a fusion protein were tested. […] The known positive control achieved a 14% fucosylation level on day 12 by increasing the afucosylation to 78%. The same amount of afucosylation compared to the known fucose-analogue acetylated 2F-Fucose was only achieved by clone 3 expressing mAb3 leading to about 34% afucosylation on day 12 (FIG. 8 C).

[3] = test system: CHO cell line producing mAb3; test: Glycosylation profile (UPLC-MS of released glycans) of mAb3 from fed-batch; format: cell-based, Chinese hamster; conditions: mAb3, 400 μM additive
Protocol: as §1, §2, §3
as §4, with “C). […]” for “C).”

[4] = test system: CHO cell line producing mAb1; test: Glycosylation profile (UPLC-MS of released glycans) of mAb1 from fed-batch; format: cell-based, Chinese hamster; conditions: for reduction of the fucosylation compared to the control: mAb1, same concentration of both additives; for fucosylation level / incorporation of the fucose-analogue: mean of day 7, 10 and 12
Protocol: as §1, §2, §3
as §4, with “C). […]” for “C).”

[5] = test system: CHO cell line producing mAb2; test: Glycosylation profile (UPLC-MS of released glycans) of mAb2 from fed-batch; format: cell-based, Chinese hamster; conditions: mAb2, 400 μM additive, day 12
Protocol: as §1, §2, §3
Glycosylation profile on day 12 was visualized since harvest of recombinant produced proteins on day 12 is common. Quantification of the glycans was obtained using the relative peak area of the fluorescence signal. Almost all peaks were assigned to glycan structures according to their mass. Unknown glycan structures and signals without mass detection were summarized as unknown species (not shown). […]

[6] = test system: CHO cell line producing mAb3; test: Fed-batch cell performance (viable cell density), clone 3 producing mAb3; format: cell-based, Chinese hamster; conditions: mAb3, feed with 400 μM additive
Protocol: Four different clones of Chinese hamster ovary (CHO) cells expressing three different monoclonal antibodies (mAb) and a fusion protein were tested. Cells were cultivated in spin tubes between 14 and 20 days at 37° C., 5% CO2, and 80% humidity. As starting cell density, 3×10^5 cells/mL in 30 mL Cellvento®4CHO media (pH 7.0±0.1) was used for clone 1 and 2 producing mAb1 and mAb2, respectively (Cellvento® Platform). Cells were cultivated at an agitation rate of 320 rpm and were fed on day 3, 5, 10, 12 and 14 with 3% volume of Cellvento® 4Feed (v/v) and on day 7 with 6% (v/v) of the feed. Clone 3 and 4 producing mAb3 and a fusion protein were inoculated at the same cell density in 30 mL Ex-Cell® Advanced Media (pH 7.2±0.1) while agitation was set to 230 rpm. Clones 3 and 4 were fed with 5% Ex-Cell® Advanced Feed (v/v) on day 3, 5, 7, 10, 12, 14 and 17. […]
The glucose level was maintained above 4 g/L by adding a specific amount of a 400 g/L glucose stock solution on demand to up to 6 g/L during the week and up to 13 g/L over the weekend. Glucose and titer were detected in the supernatant with the bioprocess analyzer CEDEX Bio HT (Roche, Mannheim, Germany) based on spectrophotometric and turbidometric methods. The viable cell density (VCD) and viability were evaluated with a Vi-CELL™ XR 2.04 cell counter (Beckman Coulter, Fullerton, Calif., USA). […]

[7] = day 12, listed as acetylated 2F-Fucose

Question: `CC(=O)OC1O[C@@H](C)[C@@H](OC(C)=O)[C@@H](OC(C)=O)[C@@H]1F` (stereo partly shown) [2F-Peracetylfucose, reference compound] was tested. Which “Fold change (affinity vs control)” value ([1]; day 5) did it give?
Answer: Its value is 1.3 fold.

Question: What about the “Fold change (affinity vs control)” value ([1]; day 12) of the same molecule?
Answer: Its value is 3.6 fold.

Question: And the “Fold change (affinity vs control)” value ([1]; day 14)?
Answer: Its value is 4.4 fold.

Question: What about the Kd ([1]; day 5) of the same molecule?
Answer: Its Kd is 78 nM.

Question: And the Kd ([1]; day 12)?
Answer: Its Kd is 34 nM.

Question: What about the Kd ([1]; day 14) of the same molecule?
Answer: Its Kd is 23 nM.

Question: What about the afucosylation [2] of the same molecule?
Answer: Its afucosylation is 82%.

Question: What about the “incorporation of fucose analogue (% of the glycans)” value [2] of the same molecule?
Answer: Its value is “without detectable incorporation”.

Question: What about the “% Afucosylated” value ([3]; day 5) of the same molecule?
Answer: The value was 14.9%.

Question: What about the “% fucose analogue (incorporated)” value ([3]; day 5) of the same molecule?
Answer: Its value is 0.3%.

Question: What about the “% Fucosylated” value ([3]; day 5, listed as 2F-PerAcFuc) of the same molecule?
Answer: The value was 83.9%.

Question: What about the “% Fucosylated” value ([3]; day 5, listed as acetylated 2F-Fucose) of the same molecule?
Answer: Its value is “about 84%”.

Question: What about the fucosylation level ([3]; day 7) of the same molecule?
Answer: The fucosylation level was “about 78%”.

Question: What about the fucosylation level ([3]; day 10) of the same molecule?
Answer: The fucosylation level was ~72%.

Question: What about the “% fucose analogue (incorporated)” value ([3]; day 12) of the same molecule?
Answer: Its value is 0.2%.

Question: And the “% Afucosylated” value ([3]; day 12, listed as 2F-PerAcFuc)?
Answer: The value was 34.2%.

Question: And the “% Fucosylated” value ([3]; day 12, listed as 2F-PerAcFuc)?
Answer: Its value is 64.8%.

Question: What about the “% Afucosylated” value [3, 7] of the same molecule?
Answer: Its value is “about 34%”.

Question: What about the “% Fucosylated” value [3, 7] of the same molecule?
Answer: Its value is 65%.

Question: What about the “% Afucosylated” value ([3]; day 14) of the same molecule?
Answer: Its value is 40.9%.

Question: What about the “% fucose analogue (incorporated)” value ([3]; day 14) of the same molecule?
Answer: Its value is 0.12%.

Question: What about the “% Fucosylated” value ([3]; day 14, listed as 2F-PerAcFuc) of the same molecule?
Answer: The value was 57.4%.

Question: And the “% Fucosylated” value ([3]; day 14, listed as acetylated 2F-Fucose)?
Answer: Its value is ~57%.

Question: And the afucosylation ([4]; mAb1, 400 μM additive, day 12)?
Answer: The afucosylation was 60%.

Question: What about the core-fucosylated glycans ([4]; mAb1, 400 μM additive, day 12) of the same molecule?
Answer: The core-fucosylated glycans was 36%.

Question: And the “reduction of the fucosylation compared to the control” value (“reduction of the fucosylation” for short) ([4]; day 7)?
Answer: The value was 11%.

Question: And the “reduction of the fucosylation” value ([4]; day 10)?
Answer: The value was 50%.

Question: And the “reduction of the fucosylation” value ([4]; day 12)?
Answer: Its value is 58%.

Question: What about the afucosylation [5] of the same molecule?
Answer: Its afucosylation is 78%.

Question: And the core-fucosylation [5]?
Answer: Its core-fucosylation is 14%.

Question: acetylated 5-Thio-L-Fucose was tested. Which afucosylation [2] did it give?
Answer: Its afucosylation is 52%.

Question: What about the “incorporation of fucose analogue (% of the glycans)” value [2] of the same molecule?
Answer: Its value is 39%.

Question: What about the “reduction of core-fucosylation compared to the control” value [2] of the same molecule?
Answer: The value was “about 63%”.

Question: And the fucosylation level ([4]; mAb1, 200 μM additive)?
Answer: Its fucosylation level is 46%.

Question: And the “incorporation of the fucose-analogue” value ([4]; mAb1, 200 μM additive)?
Answer: Its value is 50%.

Question: And the core-fucosylated glycans ([4]; mAb1, 400 μM additive, day 12)?
Answer: The core-fucosylated glycans was “about 26%”.

Question: And the “incorporation of fucose analogue (% of the glycans)” value ([4]; mAb1, 400 μM additive, day 12)?
Answer: Its value is “about 70%”.

Question: And the fucosylation level ([4]; mAb1, 400 μM additive)?
Answer: The fucosylation level was 16%.

Question: And the “incorporation of the fucose-analogue” value ([4]; mAb1, 400 μM additive)?
Answer: Its value is 81%.

Question: And the fucosylation level ([4]; mAb1, 800 μM additive)?
Answer: The fucosylation level was 9%.

Question: And the “incorporation of the fucose-analogue” value ([4]; mAb1, 800 μM additive)?
Answer: The value was 87%.

Question: What about the core-fucosylation [5] of the same molecule?
Answer: Its core-fucosylation is 8%.

Question: What about the “reduced VCD (area under the curve until day 17, compared to the control)” value [6] of the same molecule?
Answer: Its value is ~24%.
